Laboratory results: US20130183322A1, “IMMUNOSUPPRESSIVE DRUG COMBINATION FOR A STABLE AND LONG TERM ENGRAFTMENT” (YEDA RESEARCH AND DEVELOPMENT CO., LTD., priority 2011, published 2013)

Assays:
[1] = system: C3H/Hej (H-2Kk) recipient mice; assay: Chimerism induction: allogeneic T-depleted BM transplant under non myeloablative conditioning and co-stimulatory blockade; type: in vivo
Procedure: C3H/Hen recipient mice were conditioned with busulfan (2×30 mg/Kg) and T cell debulking with […] anti-CD4 and anti-CD8. Post transplant treatment included […] CTLA4/FC, […] anti-CD48, and 0.1 mg FTY720 administered at the indicated time points.
Non myeloablative conditioning and co-stimulatory blockade Protocol: C3H/Hej (H-2K^k) recipient mice were conditioned with 30 mg/kg IV Busulfex on days −3 and −2 following T cell debulking on day −6 with 300 μg anti-CD4 (Bio Express, clone Gk1.5) and anti-CD8 (Bio Express, cone 53.6.72) antibodies. On day 0, 25×10^6 T-depleted BM cells from Balb/c-Nude (H-2D^d) donors were transplanted and subjected to co-stimulation blockade consisting of 200 μg CTLA4/FC (Chimerigen Laboratories), 250 μg anti-CD48 (Bio Express, clone HM 48) and 0.1 mg FTY720 (Novartis) that was administered as follows: CTLA4/FC and anti-CD48 were injected IP on days 0, 2, 4, 6, 21 and 35 while FTY720 was inoculated per OS for 5 days from day 0 to 5 and from day 6 till day 90 twice a week. Chimerism analysis was monitored every 30 days by FACS analysis. […]
Multilineage Chimerism was performed on donor chimera 70 to 163 days post transplant. […] Fluorescence-activated cell sorting (FACS) analysis was performed using a modified Becton Dickinson FACScan.

[2] = system: C57BL/6 (Ly-5.2) recipient mice; assay: Determination of the minimal myeloablation with busulphan: donor type chimerism after congenic T cell depleted bone marrow transplant; type: in vivo
From the text: Animals: 6-12 week old female mice were used of the following strains: C57BL/6 (B6, recipient, H-2b, Ly-5.2), B6.SJL-Ptprca Pep3b/BoyJ (congenic strain, donor, H-2b, Ly-5.1) Balb/c (donor, H-2d) and C3H/Hen (recipient, H-2k) mice (all purchased from Harlan Laboratories Ltd, Ein Kerem Breeding farm Jerusalem). All mice were housed under specific pathogen free conditions and maintained under conditions approved by the Institutional Animal Care and Use Committee at the Weizmann Institute of Science.
Determination of the minimal myeloablation with Busulphan: Different groups of C57BL/6 (Ly-5.2) recipient mice were conditioned with the following final doses of IV Busulfex (Otsuka America Pharmaceutical, Inc.): 10, 20, 40, 50, 60, 80, and 100 mg/Kg/mouse. The final doses of IV Busulfex were divided in two and administered (IP) on day −2 and −1. On day 0, 25×10^6 T-depleted bone marrow cells isolated from B6.SJL-Ptprca Pep3b/BoyJ (Ly-5.1) donors were transplanted (IV) and the establishment of donor type chimerism was defined 1 and 12 month post transplant in the blood, spleen, and BM by FACS analysis of the congenic donor marker (Ly-5.1). Phenotypic expression analysis of CD8, CD4, CD45/B220 and CD11b markers on the LY-5.1^+ (donor) cells in the spleen and the BM of the donor chimera, was performed 12 month post transplant.
Flow cytometry for chimerism and multilineage analysis: For chimerism analysis, blood mononuclear cells were stained with labeled antibodies specific for Host (H-2K^k-phycoerythrin (PE)) and donor (H-2D^d-fluorescein isothiocyanate (FITC)) MHC class-I antigens. In the congenic model, anti-CD45.2-PE and anti-CD45.1-FITC antibodies were used to distinguish between the host and the donor.
Considering the importance of providing empty niches for successful BM engraftment, the present inventors initially determined the minimal myeloablation with busulphan which induced durable chimerism following infusion of congenic B6-SJL (Ly-5.1) T cell depleted bone marrow (TDBM, 25×10^6) into B6 (Ly-5.2) mice. […] Consequently, the sublethal dose of 60 mg/Kg was selected for further use in all attempts to induce allogeneic chimerism, in conjunction with transient debulking of host lymphocytes by a single infusion of anti-CD4 and anti-CD8 depleting antibodies.

Row | SMILES | chimerism achieved (in words) ([1]; allogeneic megadose TDBM after busulfan 60 mg/Kg plus anti-CD4/anti-CD8 debulking, post transplant treatment) | mice with donor type chimerism (number of mice) ([1]; two independent experiments, median follow-up 116 days (range 70 to 163) beyond cessation of immune suppression, for the combination, mice with more than 80% chimerism) | donor type chimerism ([2]; at doses higher than 50 mg/Kg (tested 10 to 100 mg/Kg)) | donor type chimerism ([2]; busulphan 50 mg/Kg, congenic B6-SJL (Ly-5.1) TDBM 25x10^6 into B6 (Ly-5.2) mice) [%] | donor type chimerism ([2]; busulphan 60 mg/Kg, congenic B6-SJL (Ly-5.1) TDBM 25x10^6 into B6 (Ly-5.2) mice) [%] | donor type chimerism ([2]; busulphan 100 mg/Kg, congenic B6-SJL (Ly-5.1) TDBM 25x10^6 into B6 (Ly-5.2) mice) [%]
1 | CCCCCCCCc1ccc(CCC(N)(CO)CO)cc1.Cl [FTY720, 2-amino-2-[2-(4-octylphenyl)ethyl]propane-1,3-diol hydrochloride] | no chimerism | 0 out of 7 | – | – | – | –
2 | CS(=O)(=O)OCCCCOS(C)(=O)=O [busulphan] | – | – | above 50% | 40±26 | 66±7 | 75±2
